In ChEMBL document CHEMBL5108012, “Discovery of 2,5-diphenyl-1,3,4-thiadiazole derivatives as HDAC inhibitors with DNA binding affinity” (Eur J Med Chem, 2022) one finds IC50 and Activity data, which are given here for 37 molecules.

The subject of one experiment is MC-38. Briefly: Antiproliferative activity against mouse MC38 cells after 48 hrs by CCK-8 assay. The format is functional, cell-based. Particulars: MC-38, 48 h. In general terms: Tetrazolium assays rely on reduction of a dye to a coloured formazan, in cell work by metabolically active cells.
The test system of a further experiment is K562. Briefly: Antiproliferative activity against human K562 cells after 48 hrs by CCK-8 assay. The format is functional, cell-based. Particulars: K562, 48 h.
For experiment [1], the system named is HCT-116. Briefly: Antiproliferative activity against human HCT-116 cells after 48 hrs by CCK-8 assay. Particulars: HCT-116, 48 h. The format is functional, cell-based.
A further experiment concerns HEL. Briefly: Antiproliferative activity against human HEL cells after 48 hrs by CCK-8 assay. The format is functional, cell-based.
Experiment [2] has as its target T1, Protein deacetylase HDAC6 (Homo sapiens, UniProt Q9UBN7).
T1 sequence (Q9UBN7 whole entry): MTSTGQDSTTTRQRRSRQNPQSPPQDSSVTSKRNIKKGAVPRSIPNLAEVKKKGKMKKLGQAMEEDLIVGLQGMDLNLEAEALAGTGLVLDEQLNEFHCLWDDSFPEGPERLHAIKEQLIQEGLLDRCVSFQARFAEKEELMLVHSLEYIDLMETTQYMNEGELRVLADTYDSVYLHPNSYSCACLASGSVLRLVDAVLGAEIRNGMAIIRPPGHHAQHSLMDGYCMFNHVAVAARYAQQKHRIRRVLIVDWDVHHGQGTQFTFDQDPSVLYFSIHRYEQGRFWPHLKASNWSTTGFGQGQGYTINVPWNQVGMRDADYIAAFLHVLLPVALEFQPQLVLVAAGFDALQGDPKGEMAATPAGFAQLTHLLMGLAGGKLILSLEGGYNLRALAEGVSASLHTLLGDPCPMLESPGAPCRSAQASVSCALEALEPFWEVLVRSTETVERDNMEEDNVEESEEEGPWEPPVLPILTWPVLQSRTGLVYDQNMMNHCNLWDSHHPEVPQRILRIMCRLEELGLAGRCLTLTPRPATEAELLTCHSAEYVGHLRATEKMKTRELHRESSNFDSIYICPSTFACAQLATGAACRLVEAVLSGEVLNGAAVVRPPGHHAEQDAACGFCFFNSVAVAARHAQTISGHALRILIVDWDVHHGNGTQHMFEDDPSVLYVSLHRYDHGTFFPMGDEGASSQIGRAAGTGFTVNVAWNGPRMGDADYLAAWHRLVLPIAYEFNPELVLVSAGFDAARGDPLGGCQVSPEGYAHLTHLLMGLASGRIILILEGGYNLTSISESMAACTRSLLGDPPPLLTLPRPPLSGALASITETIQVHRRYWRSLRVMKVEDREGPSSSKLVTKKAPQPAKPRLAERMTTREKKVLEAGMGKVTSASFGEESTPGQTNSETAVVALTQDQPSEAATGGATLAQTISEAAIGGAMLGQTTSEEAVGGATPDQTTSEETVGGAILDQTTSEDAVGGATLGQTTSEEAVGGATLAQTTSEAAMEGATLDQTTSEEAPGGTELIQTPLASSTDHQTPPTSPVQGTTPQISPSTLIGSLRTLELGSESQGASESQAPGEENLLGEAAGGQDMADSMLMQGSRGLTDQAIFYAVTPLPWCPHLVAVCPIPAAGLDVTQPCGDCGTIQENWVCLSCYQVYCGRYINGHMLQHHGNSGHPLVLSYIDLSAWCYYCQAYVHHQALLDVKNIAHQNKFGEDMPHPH
Put plainly: Inhibition of HDAC6 in human HeLa cell nuclear extract using Boc-Lys(Ac)-AMC or Boc-Lys(triflouroacetyl)-AMC as substrate incubated for 30 mins and measured by fluorescence assay. The format is cell-free.

For the next experiment, the system named is MOLT-4. Put plainly: Antiproliferative activity against human MOLT-4 cells after 48 hrs by CCK-8 assay. The following applies: MOLT-4, 48 h. The format is functional, cell-based.
Experiment [3] addresses Histone deacetylase (HDAC1 and HDAC2) (Homo sapiens, UniProt Q13547+Q92769). Put plainly: Inhibition of HDAC1/HDAC2 in human HeLa cell nuclear extract using Boc-Lys(Ac)-AMC as substrate and measured by fluorometric method. Type of experiment: cell-based.
The target in another experiment is T2, Histone deacetylase 8 (Homo sapiens, UniProt Q9BY41).
T2 sequence (Q9BY41 whole entry): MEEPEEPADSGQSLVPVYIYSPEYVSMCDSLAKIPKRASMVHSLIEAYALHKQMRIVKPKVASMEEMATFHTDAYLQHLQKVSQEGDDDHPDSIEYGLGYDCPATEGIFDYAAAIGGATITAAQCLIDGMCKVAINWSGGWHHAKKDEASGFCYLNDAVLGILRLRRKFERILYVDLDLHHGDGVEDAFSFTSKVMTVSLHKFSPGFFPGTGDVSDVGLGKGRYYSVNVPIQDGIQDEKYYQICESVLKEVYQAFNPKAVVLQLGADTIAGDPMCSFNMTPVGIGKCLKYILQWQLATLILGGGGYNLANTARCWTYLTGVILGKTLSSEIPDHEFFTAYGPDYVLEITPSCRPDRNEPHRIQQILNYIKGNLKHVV
Put plainly: Inhibition of HDAC8 in human HeLa cell nuclear extract using Boc-Lys(Ac)-AMC or Boc-Lys(triflouroacetyl)-AMC as substrate incubated for 30 mins and measured by fluorescence assay. Type of experiment: cell-free.

Another experiment addresses Histone deacetylase 1 (Homo sapiens, UniProt Q13547). Briefly: Inhibition of HDAC1 in human HeLa cell nuclear extract using Boc-Lys(Ac)-AMC or Boc-Lys(triflouroacetyl)-AMC as substrate incubated for 30 mins and measured by fluorescence assay. Type of experiment: cell-free.
Another experiment relates to HepG2. Briefly: Antiproliferative activity against human HepG2 cells after 48 hrs by CCK-8 assay. Type of experiment: functional, cell-based. Particulars: HepG2, 48 h.
The next experiment relates to HeLa. Put plainly: Antiproliferative activity against human HeLa cells after 48 hrs by CCK-8 assay. Type of experiment: functional, cell-based.
Experiment [4] concerns HCT-116. Put plainly: Induction of apoptosis in human HCT-116 cells assessed as early apoptotic cells at 1.5 uM incubated for 48 hrs by PI and annexin V-FITC staining based flow cytometry (reference value: 3.4%). Type of experiment: functional. (In general: A flow cytometer gives signals particle by particle.)
Experiment [5] deals with HCT-116. Briefly: Induction of apoptosis in human HCT-116 cells assessed as late apoptotic cells at 1.5 uM incubated for 48 hrs by PI and annexin V-FITC staining based flow cytometry (reference value: 3.4%). Type of experiment: functional.
The test system of experiment [6] is Calf thymus DNA. Put plainly: Binding affinity to calf thymus DNA at 50 uM incubated for 30 mins and measured by fluorescence spectroscopy. Type of experiment: nucleic-acid assay. The following applies: Bos taurus.
In experiment [7] the test system is Calf thymus DNA. Briefly: Binding affinity to calf thymus DNA at 50 uM incubated for 30 mins and measured by UV-vis absorption spectroscopy. Type of experiment: nucleic-acid assay. Particulars: Bos taurus.

Active and inactive are the calls of the source. The rule behind the calls is not given here.

Chain of Histone deacetylase 1 (Q13547 whole entry): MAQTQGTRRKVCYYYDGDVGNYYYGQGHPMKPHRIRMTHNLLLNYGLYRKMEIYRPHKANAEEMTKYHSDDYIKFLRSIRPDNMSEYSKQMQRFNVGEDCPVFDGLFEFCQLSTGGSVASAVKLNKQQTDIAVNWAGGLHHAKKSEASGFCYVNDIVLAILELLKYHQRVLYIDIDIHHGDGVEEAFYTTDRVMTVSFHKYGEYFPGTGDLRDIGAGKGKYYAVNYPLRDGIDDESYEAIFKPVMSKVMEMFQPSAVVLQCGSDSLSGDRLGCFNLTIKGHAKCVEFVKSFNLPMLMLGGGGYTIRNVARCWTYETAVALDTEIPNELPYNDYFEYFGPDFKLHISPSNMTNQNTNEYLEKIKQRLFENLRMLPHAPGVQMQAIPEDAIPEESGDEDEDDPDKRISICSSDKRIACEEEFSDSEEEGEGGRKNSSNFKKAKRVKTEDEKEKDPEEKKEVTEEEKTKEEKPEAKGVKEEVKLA

Consider `O=C(CCCCCCOc1ccc(-c2nnc(-c3ccccc3)s2)cc1)NO`, for which the IC50 (in general, the concentration that gives 50% inhibition) is 14000 nM in the experiment on MC-38; 16000 nM with K562; 20000 nM with HCT-116 [1]; more than 10000 nM in the experiment on HEL; 64 nM in [2]; 3100 nM in the experiment on MOLT-4. The IC50 in experiment [3] was 199 nM; at Histone deacetylase 8, more than 10000 nM; against Histone deacetylase 1, 82 nM; with HepG2, more than 50000 nM; with HeLa, more than 50000 nM.
On to `COc1cc(-c2nnc(-c3ccc(OCCCCCC(=O)NO)cc3)s2)cc(OC)c1OC`, for which the IC50 in experiment [3] is recorded as more than 1000 nM.
Still for that read-out and setting: the figure for `O=C(COc1cccc(-c2nnc(-c3ccccc3)s2)c1)NO` is more than 1000 nM; for `COc1cc(-c2nnc(-c3ccc(OCCCC(=O)NO)cc3)s2)cc(OC)c1OC` it is more than 1000 nM; for `COc1cc(-c2nnc(-c3cccc(OCCCCCCCC(=O)NO)c3)s2)cc(OC)c1OC` it is 395 nM.
Still for that read-out and setting: under `O=C(COc1ccc(-c2nnc(-c3ccccc3Cl)s2)cc1)NO` stands more than 1000 nM; under `O=C(COc1cccc(-c2nnc(-c3ccccc3Cl)s2)c1)NO`, more than 1000 nM.
On the same count and under the same terms, the figure for `COc1cc(-c2nnc(-c3cccc(OCCCCCC(=O)NO)c3)s2)cc(O)c1OC` is more than 1000 nM; for `COc1cc(-c2nnc(-c3cccc(OCCCCC(=O)NO)c3)s2)cc(OC)c1OC` it is more than 1000 nM; for `O=C(CCCCOc1ccc(-c2nnc(-c3ccccc3Cl)s2)cc1)NO` it is more than 1000 nM.
`O=C(CCCCCCC(=O)Nc1ccccc1)NO` [VORINOSTAT]: the Activity in the experiment with HCT-116 [4] and in the experiment with HCT-116 [5] was 5.05% throughout.
As to `O=C(CCCCCOc1cccc(-c2nnc(-c3ccccc3Cl)s2)c1)NO`, the IC50 in experiment [3] amounted to 339 nM.
`COc1cc(-c2nnc(-c3cccc(OCCCC(=O)NO)c3)s2)cc(OC)c1OC` had an IC50 in [3] of more than 1000 nM.
The same measure, in the same setting: under `COc1cc(-c2nnc(-c3ccc(OCCCCCCC(=O)NO)cc3)s2)cc(OC)c1OC` stands 537 nM.
As to `CN1CCN(c2ccc3[nH]c(-c4ccc5[nH]c(-c6ccc(O)cc6)nc5c4)nc3c2)CC1`, the outcome in the experiment with Calf thymus DNA [6] and in the experiment with Calf thymus DNA [7] was Active.
`COc1cc(-c2nnc(-c3ccc(OCCCCC(=O)NO)cc3)s2)cc(OC)c1OC` came in with an IC50 in experiment [3] of more than 1000 nM.
Same read-out and setting: under `O=C(CCCCCOc1ccc(-c2nnc(-c3ccccc3Cl)s2)cc1)NO` stands more than 1000 nM.
In turn, `O=C(CCCCCCOc1ccc(-c2nnc(-c3ccccc3Cl)s2)cc1)NO` showed an IC50 in experiment [3] of more than 1000 nM.
In the case of `O=C(CCCCOc1cccc(-c2nnc(-c3ccccc3)s2)c1)NO`, the IC50 with MC-38 was 7100 nM; in the experiment with K562, 2100 nM; in the experiment with HCT-116 [1], 2000 nM; in the experiment on HEL, 570 nM; in [2], 32 nM; with MOLT-4 it was 490 nM. The IC50 is 118 nM in [3]; 3110 nM against Histone deacetylase 8; 179 nM against Histone deacetylase 1; 11000 nM in the experiment with HepG2; 1900 nM with HeLa.
Turning to `COc1cc(-c2nnc(-c3cccc(OCC(=O)NO)c3)s2)cc(OC)c1OC`, the IC50 in [3] is more than 1000 nM.
In the case of `O=C(CCCCCCCOc1ccc(-c2nnc(-c3ccccc3)s2)cc1)NO`, the IC50 in experiment [3] is recorded as more than 1000 nM.
On the same count and under the same terms, the figure for `O=C(CCCCOc1cccc(-c2nnc(-c3ccccc3Cl)s2)c1)NO` is 656 nM; for `O=C(CCCCCCCOc1cccc(-c2nnc(-c3ccccc3)s2)c1)NO` it is 538 nM.
As for `O=C(CCCCOc1ccc(-c2nnc(-c3ccccc3)s2)cc1)NO`, the IC50 in experiment [3] is listed as 362 nM.
In turn, `O=C(CCCCCCCOc1ccc(-c2nnc(-c3ccccc3Cl)s2)cc1)NO` registered an IC50 in [3] of more than 1000 nM.
`O=C(COc1ccc(-c2nnc(-c3ccccc3)s2)cc1)NO` had an IC50 in experiment [3] of more than 1000 nM.
On the same count and under the same terms, under `O=C(CCCOc1cccc(-c2nnc(-c3ccccc3)s2)c1)NO` stands more than 1000 nM.
Consider `COc1cc(-c2nnc(-c3ccc(OCC(=O)NO)cc3)s2)cc(OC)c1OC`, for which, in [3], the half-maximal inhibitory concentration (IC50) is recorded as more than 1000 nM.
As for `O=C(CCCOc1ccc(-c2nnc(-c3ccccc3Cl)s2)cc1)NO`, the IC50 in [3] is recorded as more than 1000 nM.
Still for that read-out and setting: the figure for `O=C(CCCOc1cccc(-c2nnc(-c3ccccc3Cl)s2)c1)NO` is more than 1000 nM; for `O=C(CCCCCOc1ccc(-c2nnc(-c3ccccc3)s2)cc1)NO` it is more than 1000 nM.
With `COc1cc(-c2nnc(-c3ccc(OCCCCCCCC(=O)NO)cc3)s2)cc(OC)c1OC`, the IC50 in [3] is reported as more than 1000 nM.
Consider `COc1cc(-c2nnc(-c3cccc(OCCCCCCC(=O)NO)c3)s2)cc(OC)c1OC`, for which the half-maximal inhibitory concentration (IC50) in experiment [3] came to 366 nM.
As for `O=C(CCCCCCOc1cccc(-c2nnc(-c3ccccc3)s2)c1)NO`, the IC50 was 2400 nM with MC-38; 3200 nM in the experiment with K562; 2900 nM in the experiment with HCT-116 [1]; 2600 nM with HEL; 185 nM in experiment [2]; 710 nM in the experiment on MOLT-4. Besides, the IC50 in experiment [3] was found to be 57 nM; at Histone deacetylase 8, 2390 nM; against Histone deacetylase 1, 19 nM; in the experiment on HepG2, 2200 nM; with HeLa, 4900 nM.
In the case of `O=C(CCCOc1ccc(-c2nnc(-c3ccccc3)s2)cc1)NO`, the IC50 in experiment [3] is more than 1000 nM.
Still for that read-out and setting: the figure for `O=C(CCCCCCCOc1cccc(-c2nnc(-c3ccccc3Cl)s2)c1)NO` is 461 nM.
Consider `O=C(CCCCCCOc1cccc(-c2nnc(-c3ccccc3Cl)s2)c1)NO`, for which the IC50 was 16000 nM with MC-38; 7700 nM in the experiment on K562; 10000 nM in the experiment on HCT-116 [1]; 8100 nM in the experiment with HEL; 30 nM in experiment [2]; 2400 nM in the experiment on MOLT-4. Moreover, the IC50 was 168 nM in experiment [3]; 1520 nM on Histone deacetylase 8; 168 nM at Histone deacetylase 1; 21000 nM in the experiment on HepG2; 17000 nM in the experiment on HeLa.
